# pIC50: −log10 of the molar value.
# Target: BTK recombinant protein (Homo sapiens (Human), UniProt Q06187)
# Experiment: Determination of biochemical BTK (Z'-LYTE kinase assay)
# Conditions: not given
# Excerpt: Example 2 Determination of Biochemical BTK
# (§1) 1. Reagents and Materials
# BTK recombinant protein: Invitrogen, Cat #PV3363;
# Z′-LYTE® kinase test kit-tyrosine 1 peptide: Invitrogen, Cat #PV3190;
# Z′-LYTE® biochemical assay employs a fluorescence resonance energy transfer (FRET)—based, coupled-enzyme format and is based on the differential sensitivity of phosphorylated and non-phosphorylated peptides to proteolytic cleavage. Both ends of the short peptide substrate are labeled with two fluorescent groups to form a FRET paired combination. In the primary reaction (the Kinase Reaction), the kinase transfers the γ-phosphate of ATP to a single […] residue on the short peptide substrate. In the secondary reaction (the development reaction), the non-phosphorylated short peptides were recognized and cleaved by a site-specific protease (the development reagent). Phosphorylated short peptides can resist such cleavage. Cleavage of short peptides can disrupt the donor (such as coumarin) and receptor fluorophores (fluorescein) on the short peptides, while the phosphorylated short peptides can maintain FRET. The calculation method of the ratio is as follows, and the ratio of the respective emission signals generated by the donor fluorophores emitted (after excitation at 400 nm) to the receptors is calculated. Emission signal ratio=emitted light by coumarin (445 nm)/emitted light by fluorescein (520 nm). If the FRET short peptide is phosphorylated (such as no kinase inhibitor), the emitted light ratio will remain in a lower level. If the FRET short peptide is non-phosphorylated (such as kinase inhibitor), the emitted light ratio will be in a higher level. In this way, the inhibitory effects of different compound inhibitors on BTK kinase activity would be distinguished.
# The experiment were carried out according to the instructions of the Z′-LYTE® kinase test kit-tyrosine 1 peptide. Reagent preparation: 1.33× kinase buffer: 5× kinase buffer was diluted with water to 1.33× kinase buffer; an enzyme solution: the kinase was dissolved in 1.33× kinase buffer with the final working concentration being 3.32 nM; a short peptide solution: a short peptide stock solution (1 mM dissolved in DMSO) was dissolved in 1.33× kinase buffer with the final working concentration being 2 μM; Z′-LYTE Tyr01 phosphorylated short peptide solution, 0.6 μl of stock solution (1 mM dissolved in DMSO) was dissolved in 149.4 μl of 1.33× kinase buffer; an ATP solution: an ATP stock solution (10 mM aqueous solution) was dissolved in 1.33× kinase buffer with the final working concentration being 32 μM; a color-developing solution: color-developing solution B was dissolved in color-developing buffer with the final working concentration being 1× color-developing solution; 4× compound preparation: the compound was diluted in 3-fold gradient concentration to finally obtain 4% DMSO aqueous solution containing different concentrations of the compound, with the final working concentration being 3000, 1000, 333.33, 111.11, 37.04, 12.35, 4.12, 1.37 nM, 8 concentration points in total.
# Specific steps of the experiment: In the experiment, there were three control groups, each with 8 replicate wells, which were C1 100% inhibition group (no ATP), C2 0% inhibition group (with ATP), and C3 100% phosphorylation group, respectively. 2.5 μl of serially diluted compound was added to each well of a 384-well plate, with double replicate wells, and 4% DMSO solution was added to wells C1, C2, and C3. After that, except for wells C3, 2.5 μl of BTK enzyme solution was added to each remaining well, which was left to stand at 4° C. for 30 minutes. After that, except for wells C3, 2.5 μl of short peptide solution was added to each well, and 5 μl of phosphorylated short peptide solution was added to each of wells C3. 2.5 μl of 1.33× kinase buffer was added to each of wells C1 and C3, and 2.5 μl of ATP solution was added to each of the remaining wells. […]
# BTK recombinant protein, sequence (Q06187 whole entry): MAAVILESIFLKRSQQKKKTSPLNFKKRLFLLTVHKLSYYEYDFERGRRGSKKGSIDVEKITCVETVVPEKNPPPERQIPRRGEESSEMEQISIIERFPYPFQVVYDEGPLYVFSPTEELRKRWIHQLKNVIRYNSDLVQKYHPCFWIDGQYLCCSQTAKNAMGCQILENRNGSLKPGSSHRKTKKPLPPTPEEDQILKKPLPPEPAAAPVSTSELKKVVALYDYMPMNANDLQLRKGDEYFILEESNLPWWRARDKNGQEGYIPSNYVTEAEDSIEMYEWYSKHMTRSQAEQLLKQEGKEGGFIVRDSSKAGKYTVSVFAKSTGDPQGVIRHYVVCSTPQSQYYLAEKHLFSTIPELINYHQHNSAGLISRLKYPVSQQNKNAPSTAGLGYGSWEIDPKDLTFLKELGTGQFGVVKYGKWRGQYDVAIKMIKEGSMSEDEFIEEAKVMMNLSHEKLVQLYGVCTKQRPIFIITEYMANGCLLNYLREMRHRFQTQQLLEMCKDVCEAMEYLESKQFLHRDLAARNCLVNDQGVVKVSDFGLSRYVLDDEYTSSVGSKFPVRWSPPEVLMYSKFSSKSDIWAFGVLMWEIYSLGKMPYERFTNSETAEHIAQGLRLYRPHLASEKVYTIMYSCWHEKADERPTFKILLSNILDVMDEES
row,Molecule,pIC50
1,Cc1cc(Nc2cc(-c3ccnc(-n4ccn5c6c(cc5c4=O)CC(C)(C)C6)c3CO)cn(C)c2=O)nn1C [Compound 82],8.22
2,COCc1cc(Nc2cc(-c3ccnc(-n4ccn5c6c(cc5c4=O)CCC6)c3CO)cn(C)c2=O)nn1C [Compound 153],6.93
3,"2-(3′-(hydroxymethyl)-5-((5-(2-methoxyethyl)-4-methyl-4,5,6,7-tetrahydropyrazolo[1,5-a]pyrazin-2-yl) amido)-1-methyl-6-oxo-1,6-dihydro-[3,4′-bispyridin]-2′-yl)-7,7-dimethyl-7,8-dihydro-2H-cyclopenta[4,5]pyrrolo[1,2-d][1,2,4]triazin-1(6H)-one optically Pure [Compound 120]",8.10
4,Cc1nn(-c2nccc(-c3cc(Nc4ccc(N5CCN(C6COC6)C[C@@H]5C)cn4)c(=O)n(C)c3)c2CO)c(=O)c2cc3c(n12)CCCC3 [Compound 158],6.71
5,Cn1cc(-c2ccnc(-n3ccn4c5c(cc4c3=O)CC(C)(C)C5)c2CO)cc(NC(=O)C2CCC2)c1=O [Compound 130],6.50
6,"Cn1cc(-c2ccnc(-n3ccn4c5c(cc4c3=O)CC(C)(C)C5)c2CO)cc(N)c1=O [Compound 98, 2-(5-amino-3′-(hydroxymethyl)-1-methyl-6-oxo-1,6-dihydro-[3,4′-bispyridin]-2′-yl)-7,7-dimethyl-7,8-dihydro-2H-cyclopenta[4,5]pyrrolo[1,2-a]pyrazin-1(6H)-one]",5.90
7,COCCN1CCn2nc(Nc3cc(-c4ccnc(-n5cnn6c7c(cc6c5=O)CCCC7)c4CO)cn(C)c3=O)cc2C1 [Compound 194],7.19
8,Cn1cc(-c2ccnc(-n3ccn4c5c(cc4c3=O)CCC5)c2CO)cc(Nc2cc3n(n2)CCOC3)c1=O [Compound 155],6.91
9,C[C@H]1COCCN1c1cnc(Nc2cc(-c3ccnc(-n4ncn5c6c(cc5c4=O)CC(C)(C)C6)c3CO)cn(C)c2=O)nc1 [Compound 195],7.42
10,C[C@H]1CN(C2COC2)CCN1c1ccc(Nc2cc(-c3ccnc(-n4ccn5c6c(cc5c4=O)CC(C)(C)C6)c3CO)cn(C)c2=O)c(F)c1 [Compound 103],< 5.52
11,Cn1cc(-c2ccnc(-n3ccn4c5c(cc4c3=O)CC(C)(C)C5)c2CO)cc(NC(=O)c2ccccc2)c1=O [Compound 131],5.70
12,COc1ccc(Nc2cc(-c3ccnc(-n4ccn5c6c(cc5c4=O)CCC6)c3CO)cn(C)c2=O)nc1 [Compound 146],6.20
13,C[C@@H]1CN(c2ccc(Nc3cc(-c4ccnc(-n5ccn6c7c(cc6c5=O)CC(C)(C)C7)c4CO)nn(C)c3=O)nc2)[C@@H](C)CN1C1COC1 [Compound 201],8.30
14,COCCN1CCn2nc(Nc3cc(-c4ccnc(-n5ccn6c7c(cc6c5=O)CCC7)c4CO)cn(C)c3=O)cc2C1 [Compound 148],6.95
15,C[C@H]1CN(C2COC2)CCN1c1cnc(Nc2cc(-c3ccnc(-n4ncn5c6c(cc5c4=O)CC(C)(C)C6)c3CO)cn(C)c2=O)nc1 [Compound 197],7.18
16,CCn1cc(Nc2cc(-c3ccnc(-n4ccn5c6c(cc5c4=O)CCC6)c3CO)cn(C)c2=O)nn1 [Compound 138],6.66
17,CC(O)c1c(-c2cc(Nc3ccc(N4CCN(C5COC5)C[C@@H]4C)cn3)c(=O)n(C)c2)ccnc1-n1ccn2c3c(cc2c1=O)CC(C)(C)C3 (mixture of isomers) [Compound 114],< 5.52
18,COC1CN(c2ccc(Nc3cc(-c4ccnc(-n5ccn6c7c(cc6c5=O)CCC7)c4CO)cn(C)c3=O)nc2)C1 [Compound 152],6.45
19,"COCc1c(-c2cc(N(C)c3ccc(N4CCN(C5COC5)C[C@@H]4C)cn3)c(=O)n(C)c2)ccnc1-n1ccn2c3c(cc2c1=O)CC(C)(C)C3 [Compound 223, (S)-2-(3′-(methoxymethyl)-1-methyl-5-(methyl(5-(2-methyl-4-(oxetan-3-yl)piperazin-1-yl)pyridin-2-yl)amino)-6-oxo-1,6-dihydro-[3,4′-bispyridin]-2′-yl)-7,7-dimethyl-7,8-dihydro-2H-cyclopenta[4,5]pyrrolo[1,2-a]pyrazin-1(6H)-one]",< 5.52
20,[2H]C(O)c1c(-c2cc(Nc3ccc(N4CCN(C5COC5)C[C@@H]4C)cn3)c(=O)n(C([2H])([2H])[2H])c2)ccnc1-n1ccn2c3c(cc2c1=O)CC(C)(C)C3 (some centres unmarked) [Compound 38],> 9.00
21,Cc1ccc(Nc2cc(-c3ccnc(-n4ccn5c6c(cc5c4=O)CCC6)c3CO)cn(C)c2=O)nn1 [Compound 147],5.81
22,CCC(=O)Nc1cc(-c2ccnc(-n3ccn4c5c(cc4c3=O)CC(C)(C)C5)c2CO)cn(C)c1=O [Compound 88],6.87

# Target: phosphorylated BTK in Ramos cells (Homo sapiens (Human), UniProt Q06187)
# Experiment: Determination of phosphorylated BTK in Ramos cells (BTK phospho-Y223 HTRF)
# Format: cell-based
# Conditions: anti-human IgM + hydrogen peroxide stimulation
# Experimental: Determination of Phosphorylated BTK in Ramos Cells
# as §1
# Ramos cells: Ramos cells were purchased from American Standard Biological Collection Center ATCC Cell Bank, PRMI 1640 medium containing L-glutamine, 1.5 g/L of sodium bicarbonate, 2.383 g/L of HEPES solution, 0.11 g/L of sodium pyruvate and 4.5 g/L of glucose was used, added 10% fetal bovine serum FBS, and placed in a 5% CO2, 37° C. cell incubator for normal culture;
# Phosphorylated BTK HTRF detection kit (BTK phospho-Y223 HTRF kit): Cisbio, Cat #63ADK017PEH;
# Ramos cells were starved in PRMI 1640 medium with 1% FBS for 2 hours. The starved Ramos cells were diluted with Hank's balanced salt solution to 5.0×10^6 cells/ml, seeded in a 96-well plate with 20 μL/well (1.0×10^5 cells/well), and cultured in a 5% CO2, 37° C. cell incubator. After culturing for 1 hour, the test compound was diluted with Hank's balanced salt solution in 4-fold gradient to the corresponding concentrations, and then 5 μL/well of the diluted test compound with different concentrations (the final concentrations of the test compound were 3.0, 0.75, 0.188, 0.047, 0.012, 0.0029, 0.0007 and 0.00018 μM, and the final concentration of DMSO was 0.3%, double replicate wells) or 5 μL/well of control solution (1.5% DMSO, 8 replicate wells) were added to 20 μL/well of cell culture system, which incubated together for another hour, then 5 μL/well of a mixed solution of human immunoglobulin M (final concentration was 10 μg/mL) and hydrogen peroxide (final concentration was 3.3 mM) diluted with Hank's balanced salt solution was added to the treating wells for the test compound and the control treating wells for anti-human immunoglobulin M, and 5 μL/well of Hank's balanced salt solution was added to negative control treating wells. The plate was incubated in a 5% CO2, 37° C. cell incubator for 10 minutes.
# 10 μL/well of cell lysis buffer was added to each well of a 96-well plate, which was mixed well and lysed at room temperature for 30 minutes. 16 μL/well of lysis buffer was pipetted to a new 384 well plate, and then added 4 μL/well of phosphorylated BTK antibody, centrifuged (1000 rpm) for 1 minute, then shaken for 1 minute, further centrifuged (1000 rpm) for 1 minute, and finally placed in a constant temperature incubator overnight. Detection was performed on the next day.
# The 384 well plate incubated overnight in the constant temperature incubator was taken out to detect the luminescence signal using the Envision microwell plate reader at the […]. The reading value at 665 nm/615 nm of each well multiplied by 104 was used as the signal value of each well.
# The average signal value of the wells supplemented with the mixed solution of human immunoglobulin M (final concentration was 10 μg/mL) and hydrogen peroxide (final concentration was 3.3 mM) without the test compound was regarded as the high value, and the average signal value of the wells without immunoglobulin M stimulation and without the test compound was regarded as the low value. According to the signal value in each well, the inhibition ratio (%) of each concentration of compounds was calculated, and the 205 model in XL-Fit 5.3 software (ID Business Solutions Limited) was used to obtain an IC50 value.
# The inhibition ratio is calculated as follows: inhibition ratio (%)=100%−{(treating well for the test compound−negative control treating well)/(control treating well for anti-human immunoglobulin M−negative control treating well)}×100%, wherein,
# Treating well for the test compound: represents the signal value of Ramos cells treated with anti-human immunoglobulin M, hydrogen peroxide and the test compound.
# Control treating well for anti-human immunoglobulin M: represents the signal value of Ramos cells treated with anti-human immunoglobulin M, hydrogen peroxide but without the test compound. […]
# phosphorylated BTK in Ramos cells, sequence (Q06187 whole entry): as above
row,Molecule,pIC50
1,Cc1cc(Nc2cc(-c3ccnc(-n4ccn5c6c(cc5c4=O)CC(C)(C)C6)c3CO)cn(C)c2=O)nn1C [Compound 82],8.70
2,"2-(3′-(hydroxymethyl)-5-((5-(2-methoxyethyl)-4-methyl-4,5,6,7-tetrahydropyrazolo[1,5-a]pyrazin-2-yl) amido)-1-methyl-6-oxo-1,6-dihydro-[3,4′-bispyridin]-2′-yl)-7,7-dimethyl-7,8-dihydro-2H-cyclopenta[4,5]pyrrolo[1,2-d][1,2,4]triazin-1(6H)-one optically Pure [Compound 120]",8.30
3,"CN1CCn2nc(Nc3cc(-c4ccnc(-n5ccn6c7c(cc6c5=O)CC(C)(C)C7)c4CO)cn(C)c3=O)cc2C1 [Compound 69, 2-(3′-(hydroxymethyl)-1-methyl-5-((5-methyl-4,5,6,7-tetrahydropyrazolo[1,5-a]pyrazin-2-yl)amino)-6-oxo-1,6-dihydro-[3,4′-bispyridin]-2′-yl)-7,7-dimethyl-7,8-dihydro-2H-cyclopenta[4,5]pyrrolo[1,2-a]pyrazin-1(6H)-one]",8.70
4,COCC(C)n1cc(Nc2nc(-c3ccnc(-n4ccn5c6c(cc5c4=O)CC(C)(C)C6)c3CO)cn(C)c2=O)nn1 (centres unmarked) [Compound 42],6.47

# Source: patent US11478474B2, “2-(3′-(hydroxymethyl)-1-methyl-5-((5-(2-methyl-4-(oxetan-3-yl)piperazin-1-yl)pyridin-2-yl)amino)-6-oxo-1,6-dihydro-[3,4′-bipyridin]-2′-yl)-7,7-dimethyl-7,8-dihydro-2H-cyclopenta[4,5]pyrrolo[1,2-a]pyrazin-1(6H)-one as a BTK inhibitor” (HUTCHISON MEDIPHARMA LIMITED, priority 2020, dated 2022)
